Data from ChEMBL document CHEMBL3774389, “C-3 benzoic acid derivatives of C-3 deoxybetulinic acid and deoxybetulin as HIV-1 maturation inhibitors” (Bioorg Med Chem, 2016).
pEC50: −log10 of the molar value.

Test system: Human immunodeficiency virus 1
Assay: Antiviral activity against wild type HIV1 NLRepRlucP373S infected in human MT2 cells after 4 to 5 days by luciferase report gene based multiple cycle drug susceptibility assay
Assay type: functional, organism-based
Conditions: Human immunodeficiency virus 1, NLRepRlucP373S

In order of rising pEC50:
1. C=C(C)[C@@H]1CC[C@]2(CO)CC[C@]3(C)[C@H](CC[C@@H]4[C@@]5(C)CC=C(c6cnc(C(=O)O)nc6)C(C)(C)[C@@H]5CC[C@]43C)[C@@H]12  5.97
2. C=C(C)[C@@H]1CC[C@]2(CO)CC[C@]3(C)[C@H](CC[C@@H]4[C@@]5(C)CC=C(c6ccc(C(=O)O)c(OC)c6)C(C)(C)[C@@H]5CC[C@]43C)[C@@H]12  6.29
3. C=C(C)[C@@H]1CC[C@]2(C(=O)O)CC[C@]3(C)[C@H](CC[C@@H]4[C@@]5(C)CC=C(c6ccc(C(=O)NS(=O)(=O)C(C)C)cc6)C(C)(C)[C@@H]5CC[C@]43C)[C@@H]12  6.91
4. C=C(C)[C@@H]1CC[C@]2(CO)CC[C@]3(C)[C@H](CC[C@@H]4[C@@]5(C)CC=C(c6ccc(C(=O)O)cc6Cl)C(C)(C)[C@@H]5CC[C@]43C)[C@@H]12  6.94
5. C=C(C)[C@@H]1CC[C@]2(CO)CC[C@]3(C)[C@H](CC[C@@H]4[C@@]5(C)CC=C(c6ccc(C(=O)O)c(O)c6)C(C)(C)[C@@H]5CC[C@]43C)[C@@H]12  7.09
6. C=C(C)[C@@H]1CC[C@]2(CO)CC[C@]3(C)[C@H](CC[C@@H]4[C@@]5(C)CC=C(c6ccc(C(=O)O)cc6F)C(C)(C)[C@@H]5CC[C@]43C)[C@@H]12  7.26
7. C=C(C)[C@@H]1CC[C@]2(CO)CC[C@]3(C)[C@H](CC[C@@H]4[C@@]5(C)CC=C(c6ccc(C(=O)O)c(F)c6)C(C)(C)[C@@H]5CC[C@]43C)[C@@H]12  7.34
8. C=C(C)[C@@H]1CC[C@]2(CO)CC[C@]3(C)[C@H](CC[C@@H]4[C@@]5(C)CC=C(c6cc(C(=O)O)no6)C(C)(C)[C@@H]5CC[C@]43C)[C@@H]12  7.41
9. C=C(C)[C@@H]1CC[C@]2(CO)CC[C@]3(C)[C@H](CC[C@@H]4[C@@]5(C)CC=C(c6ccc(C(=O)O)c(Cl)c6)C(C)(C)[C@@H]5CC[C@]43C)[C@@H]12  7.62
10. C=C(C)[C@@H]1CC[C@]2(C(=O)O)CC[C@]3(C)[C@H](CC[C@@H]4[C@@]5(C)CC=C(c6ccc(C(=O)O)c(Cl)c6)C(C)(C)[C@@H]5CC[C@]43C)[C@@H]12  7.68

Test system: Human immunodeficiency virus 1
Assay: Antiviral activity against wild type HIV1 NLRepRlucP373S infected in human MT2 cells after 4 to 5 days in presence of 15 mg/ml HSA by luciferase report gene based multiple cycle drug susceptibility assay
Assay type: functional, organism-based
Conditions: Human immunodeficiency virus 1, NLRepRlucP373S

In order of rising pEC50:
1. C=C(C)[C@@H]1CC[C@]2(CO)CC[C@]3(C)[C@H](CC[C@@H]4[C@@]5(C)CC=C(c6ccc(C(=O)O)c(OC)c6)C(C)(C)[C@@H]5CC[C@]43C)[C@@H]12  5.93
2. C=C(C)[C@@H]1CC[C@]2(CO)CC[C@]3(C)[C@H](CC[C@@H]4[C@@]5(C)CC=C(c6cnc(C(=O)O)nc6)C(C)(C)[C@@H]5CC[C@]43C)[C@@H]12  5.97
3. C=C(C)[C@@H]1CC[C@]2(C(=O)O)CC[C@]3(C)[C@H](CC[C@@H]4[C@@]5(C)CC=C(c6ccc(C(=O)O)c(Cl)c6)C(C)(C)[C@@H]5CC[C@]43C)[C@@H]12  6.48
4. C=C(C)[C@@H]1CC[C@]2(CO)CC[C@]3(C)[C@H](CC[C@@H]4[C@@]5(C)CC=C(c6cc(C(=O)O)no6)C(C)(C)[C@@H]5CC[C@]43C)[C@@H]12  6.53
5. C=C(C)[C@@H]1CC[C@]2(C(=O)O)CC[C@]3(C)[C@H](CC[C@@H]4[C@@]5(C)CC=C(c6ccc(C(=O)NS(=O)(=O)C(C)C)cc6)C(C)(C)[C@@H]5CC[C@]43C)[C@@H]12  6.56
6. C=C(C)[C@@H]1CC[C@]2(CO)CC[C@]3(C)[C@H](CC[C@@H]4[C@@]5(C)CC=C(c6ccc(C(=O)O)c(F)c6)C(C)(C)[C@@H]5CC[C@]43C)[C@@H]12  6.73
7. C=C(C)[C@@H]1CC[C@]2(CO)CC[C@]3(C)[C@H](CC[C@@H]4[C@@]5(C)CC=C(c6ccc(C(=O)O)cc6Cl)C(C)(C)[C@@H]5CC[C@]43C)[C@@H]12  6.93
8. C=C(C)[C@@H]1CC[C@]2(CO)CC[C@]3(C)[C@H](CC[C@@H]4[C@@]5(C)CC=C(c6ccc(C(=O)O)c(Cl)c6)C(C)(C)[C@@H]5CC[C@]43C)[C@@H]12  7.03
9. C=C(C)[C@@H]1CC[C@]2(CO)CC[C@]3(C)[C@H](CC[C@@H]4[C@@]5(C)CC=C(c6ccc(C(=O)O)c(O)c6)C(C)(C)[C@@H]5CC[C@]43C)[C@@H]12  7.19
10. C=C(C)[C@@H]1CC[C@]2(CO)CC[C@]3(C)[C@H](CC[C@@H]4[C@@]5(C)CC=C(c6ccc(C(=O)O)cc6F)C(C)(C)[C@@H]5CC[C@]43C)[C@@H]12  7.30

Test system: Human immunodeficiency virus 1
Assay: Ratio of EC50 for HIV1 NLRepRlucP373S infected in human MT2 cells in presence of HSA to EC50 for HIV1 NLRepRlucP373S infected in human MT2 cells in absence of HSA
Assay type: functional
Conditions: not given

In order of falling “Ratio EC50” value:
1. C=C(C)[C@@H]1CC[C@]2(C(=O)O)CC[C@]3(C)[C@H](CC[C@@H]4[C@@]5(C)CC=C(c6ccc(C(=O)O)c(Cl)c6)C(C)(C)[C@@H]5CC[C@]43C)[C@@H]12  15
2. C=C(C)[C@@H]1CC[C@]2(CO)CC[C@]3(C)[C@H](CC[C@@H]4[C@@]5(C)CC=C(c6cc(C(=O)O)no6)C(C)(C)[C@@H]5CC[C@]43C)[C@@H]12  7.5
3. C=C(C)[C@@H]1CC[C@]2(CO)CC[C@]3(C)[C@H](CC[C@@H]4[C@@]5(C)CC=C(c6ccc(C(=O)O)c(F)c6)C(C)(C)[C@@H]5CC[C@]43C)[C@@H]12  4
4. C=C(C)[C@@H]1CC[C@]2(CO)CC[C@]3(C)[C@H](CC[C@@H]4[C@@]5(C)CC=C(c6ccc(C(=O)O)c(Cl)c6)C(C)(C)[C@@H]5CC[C@]43C)[C@@H]12  3.9
5. C=C(C)[C@@H]1CC[C@]2(CO)CC[C@]3(C)[C@H](CC[C@@H]4[C@@]5(C)CC=C(c6ccc(C(=O)O)c(OC)c6)C(C)(C)[C@@H]5CC[C@]43C)[C@@H]12  2.3
6. C=C(C)[C@@H]1CC[C@]2(C(=O)O)CC[C@]3(C)[C@H](CC[C@@H]4[C@@]5(C)CC=C(c6ccc(C(=O)NS(=O)(=O)C(C)C)cc6)C(C)(C)[C@@H]5CC[C@]43C)[C@@H]12  2.2
7. C=C(C)[C@@H]1CC[C@]2(CO)CC[C@]3(C)[C@H](CC[C@@H]4[C@@]5(C)CC=C(c6ccc(C(=O)O)cc6Cl)C(C)(C)[C@@H]5CC[C@]43C)[C@@H]12  1
8. C=C(C)[C@@H]1CC[C@]2(CO)CC[C@]3(C)[C@H](CC[C@@H]4[C@@]5(C)CC=C(c6ccc(C(=O)O)cc6F)C(C)(C)[C@@H]5CC[C@]43C)[C@@H]12  1
9. C=C(C)[C@@H]1CC[C@]2(CO)CC[C@]3(C)[C@H](CC[C@@H]4[C@@]5(C)CC=C(c6cnc(C(=O)O)nc6)C(C)(C)[C@@H]5CC[C@]43C)[C@@H]12  1
10. C=C(C)[C@@H]1CC[C@]2(CO)CC[C@]3(C)[C@H](CC[C@@H]4[C@@]5(C)CC=C(c6ccc(C(=O)O)c(O)c6)C(C)(C)[C@@H]5CC[C@]43C)[C@@H]12  0.8

Test system: Human immunodeficiency virus 1
Assay: Antiviral activity against HIV1 containing gag V370A mutant infected in human MT2 cells after 4 to 5 days by luciferase report gene based multiple cycle drug susceptibility assay
Assay type: functional, organism-based
Conditions: Human immunodeficiency virus 1, MT2

Compared with `C=C(C)[C@@H]1CC[C@]2(CO)CC[C@]3(C)[C@H](CC[C@@H]4[C@@]5(C)CC=C(c6ccc(C(=O)O)c(O)c6)C(C)(C)[C@@H]5CC[C@]43C)[C@@H]12`, `C=C(C)[C@@H]1CC[C@]2(CO)CC[C@]3(C)[C@H](CC[C@@H]4[C@@]5(C)CC=C(c6ccc(C(=O)O)c(Cl)c6)C(C)(C)[C@@H]5CC[C@]43C)[C@@H]12` is 1.02 log units higher in pEC50: 5.56 for the first, 6.58 for the second.

`C=C(C)[C@@H]1CC[C@]2(CO)CC[C@]3(C)[C@H](CC[C@@H]4[C@@]5(C)CC=C(c6cc(C(=O)O)no6)C(C)(C)[C@@H]5CC[C@]43C)[C@@H]12` and `C=C(C)[C@@H]1CC[C@]2(CO)CC[C@]3(C)[C@H](CC[C@@H]4[C@@]5(C)CC=C(c6ccc(C(=O)O)cc6Cl)C(C)(C)[C@@H]5CC[C@]43C)[C@@H]12` cannot be ordered by pEC50: < 5.70 for the first, < 5.40 for the second.

Compared with `C=C(C)[C@@H]1CC[C@]2(CO)CC[C@]3(C)[C@H](CC[C@@H]4[C@@]5(C)CC=C(c6ccc(C(=O)O)c(OC)c6)C(C)(C)[C@@H]5CC[C@]43C)[C@@H]12`, `C=C(C)[C@@H]1CC[C@]2(CO)CC[C@]3(C)[C@H](CC[C@@H]4[C@@]5(C)CC=C(c6ccc(C(=O)O)c(F)c6)C(C)(C)[C@@H]5CC[C@]43C)[C@@H]12` is higher in pEC50: < 5.40 for the first, 6.51 for the second. The second is the more potent here.

Compared with `C=C(C)[C@@H]1CC[C@]2(C(=O)O)CC[C@]3(C)[C@H](CC[C@@H]4[C@@]5(C)CC=C(c6ccc(C(=O)NS(=O)(=O)C(C)C)cc6)C(C)(C)[C@@H]5CC[C@]43C)[C@@H]12`, `C=C(C)[C@@H]1CC[C@]2(C(=O)O)CC[C@]3(C)[C@H](CC[C@@H]4[C@@]5(C)CC=C(c6ccc(C(=O)O)c(Cl)c6)C(C)(C)[C@@H]5CC[C@]43C)[C@@H]12` is 0.20 log units higher in pEC50: 6.03 for the first, 6.23 for the second. The second is the more potent here.

First: C=C(C)[C@@H]1CC[C@]2(CO)CC[C@]3(C)[C@H](CC[C@@H]4[C@@]5(C)CC=C(c6ccc(C(=O)O)cc6F)C(C)(C)[C@@H]5CC[C@]43C)[C@@H]12
Second: C=C(C)[C@@H]1CC[C@]2(CO)CC[C@]3(C)[C@H](CC[C@@H]4[C@@]5(C)CC=C(c6cnc(C(=O)O)nc6)C(C)(C)[C@@H]5CC[C@]43C)[C@@H]12
The pEC50 of the first is higher: 5.85 for the first, < 5.40 for the second.

Test system: not listed separately
Assay: Cytotoxicity against human MT2 cells assessed as cell viability by redox dye assay
Assay type: cell-based
Conditions: not given

In order of rising CC50:
1. C=C(C)[C@@H]1CC[C@]2(CO)CC[C@]3(C)[C@H](CC[C@@H]4[C@@]5(C)CC=C(c6ccc(C(=O)O)c(Cl)c6)C(C)(C)[C@@H]5CC[C@]43C)[C@@H]12  1970 nM
2. C=C(C)[C@@H]1CC[C@]2(C(=O)O)CC[C@]3(C)[C@H](CC[C@@H]4[C@@]5(C)CC=C(c6ccc(C(=O)O)c(Cl)c6)C(C)(C)[C@@H]5CC[C@]43C)[C@@H]12  3080 nM
3. C=C(C)[C@@H]1CC[C@]2(C(=O)O)CC[C@]3(C)[C@H](CC[C@@H]4[C@@]5(C)CC=C(c6ccc(C(=O)NS(=O)(=O)C(C)C)cc6)C(C)(C)[C@@H]5CC[C@]43C)[C@@H]12  8680 nM
4. C=C(C)[C@@H]1CC[C@]2(CO)CC[C@]3(C)[C@H](CC[C@@H]4[C@@]5(C)CC=C(c6ccc(C(=O)O)c(O)c6)C(C)(C)[C@@H]5CC[C@]43C)[C@@H]12  9760 nM
5. C=C(C)[C@@H]1CC[C@]2(CO)CC[C@]3(C)[C@H](CC[C@@H]4[C@@]5(C)CC=C(c6cc(C(=O)O)no6)C(C)(C)[C@@H]5CC[C@]43C)[C@@H]12  12100 nM
6. C=C(C)[C@@H]1CC[C@]2(CO)CC[C@]3(C)[C@H](CC[C@@H]4[C@@]5(C)CC=C(c6ccc(C(=O)O)cc6F)C(C)(C)[C@@H]5CC[C@]43C)[C@@H]12  16500 nM
7. C=C(C)[C@@H]1CC[C@]2(CO)CC[C@]3(C)[C@H](CC[C@@H]4[C@@]5(C)CC=C(c6ccc(C(=O)O)cc6Cl)C(C)(C)[C@@H]5CC[C@]43C)[C@@H]12  17300 nM
8. C=C(C)[C@@H]1CC[C@]2(CO)CC[C@]3(C)[C@H](CC[C@@H]4[C@@]5(C)CC=C(c6ccc(C(=O)O)c(F)c6)C(C)(C)[C@@H]5CC[C@]43C)[C@@H]12  18800 nM
9. C=C(C)[C@@H]1CC[C@]2(CO)CC[C@]3(C)[C@H](CC[C@@H]4[C@@]5(C)CC=C(c6cnc(C(=O)O)nc6)C(C)(C)[C@@H]5CC[C@]43C)[C@@H]12  22300 nM
10. C=C(C)[C@@H]1CC[C@]2(CO)CC[C@]3(C)[C@H](CC[C@@H]4[C@@]5(C)CC=C(c6ccc(C(=O)O)c(OC)c6)C(C)(C)[C@@H]5CC[C@]43C)[C@@H]12  28700 nM
